Literature values as cited in PMC9576820 (The Journal of membrane biology, 2022).

System: host cells, proteases, serum proteins

RRGWALRLVLAY [ARVA]
inhibition of antimicrobial activity by host factors: potently inhibited by host cell binding, proteolysis, and serum protein binding
